The numbers were not newly measured in PubChem BioAssay AID1259409 (Chemical Carcinogenesis Research Information System (CCRIS), 2018), which cites them from elsewhere.

For the series, the system named is rodent chemically induced tumor inhibition, incidence and multiplicity. Put plainly: CCRIS tumor inhibitor studies. As to conditions: for outcome: Strain/Sex: SENCAR/FEMALE, Target Tissue: Type of Lesion: SKIN: TUMOR, Dose [Carcinogen]: 40 NMOL IN 0.2 ML ACETONE ONCE.

Several values for one entry are separate records, joined by “and”; a condition that tells them apart may be missing. Equal values may be shown once.

Regarding `CC1(C)[C@@H](O)CC[C@]2(C)[C@H]3C(=O)C=C4[C@H]5C[C@@](C)(C(=O)O)CC[C@]5(C)CC[C@@]4(C)[C@]3(C)CC[C@@H]12`, the outcome reads like this: (Carcinogen: 7,12-DIMETHYLBENZ[A]ANTHRACENE, 57-97-6, Dose [Inhibitor]: 0, 10 UMOL IN 0.2 ML DMSO/ACETONE (1:2) 1/D BEGINNING 7 D PRIOR TO CARCINOGEN DOSE (STUDY DURATION: 16 WK), Route [Inhibitor]: DERMAL, Species: MOUSE) 100%, 65%, 35%, not calculated at 9 wk; 100%, 100%, 0%, not significant at 16 wk; (Carcinogen: 7,12-DIMETHYLBENZ[A]ANTHRACENE, 57-97-6, Dose [Inhibitor]: 0, 30 UMOL IN DMSO/ACETONE (1:2) 30 MIN PRIOR TO EACH PROMOTER DOSE (STUDY DURATION: 16 WK), Route [Inhibitor]: DERMAL, Species: MOUSE) 100%, 10%, 90%, not calculated at 9 wk; 100%, 80%, 20%, not calculated at 16 wk.

For `CC(C)(C)c1cc(O)c(O)c(C(C)(C)C)c1`, where the note is “Carcinogen: BENZO[A]PYRENE, 50-32-8, Dose [Inhibitor]: 0.03 MMOL/G OF DIET DAILY STARTING 7 D BEFORE AND CONTINUING THROUGH 3 D AFTER CARCINOGEN TREATMENT FOLLOWED BY OBSERVAT, Route [Inhibitor]: ORAL, Species: MOUSE, Strain/Sex: ICR/FEMALE, Target Tissue: Type of Lesion: FORESTOMACH: NEOPLASM, Dose [Carcinogen]: 1 MG IN 0.2 ML CORN OIL 2/WK FOR 4 WK, Promoter: NONE USED”, the “tumour outcome (control, treated, inhibition, significance)” value is 100%, 75%, 25%, p<0.05 and 95%, 74%, 22%, not significant.

For `O=C(/C=C/c1ccc(O)c(O)c1)O[C@@H]1C[C@](O)(C(=O)O)C[C@@H](O)[C@H]1O`, the “tumour outcome (control, treated, inhibition, significance)” value reads like this: (Carcinogen: 4-NITROQUINOLINE-1-OXIDE, 56-57-5, Dose [Inhibitor]: 0, 250 PPM IN DIET FOR 7 WK BEGINNING 1 WK PRIOR TO START OF CARCINOGEN TREATMENT (STUDY DURATION: 32 WK), Route [Inhibitor]: ORAL, Species: RAT, Strain/Sex: F344/MALE, Target Tissue: Type of Lesion: TONGUE: PAPILLOMA, Dose [Carcinogen]: 20 PPM IN DRINKING WATER FOR 5 WK, Promoter: NONE USED) 1/15 (7%), 1/15 (7%), 0%, not significant; (Carcinogen: 7,12-DIMETHYLBENZ[A]ANTHRACENE, 57-97-6, Dose [Inhibitor]: 10 UMOL IN 200 µL ACETONE/DMSO (90:10) 2/WK FOR 19 WK BEGINNING 1 WK POST CARCINOGEN DOSE (STUDY DURATION: 20 WK), Route [Inhibitor]: DERMAL, Species: MOUSE, Strain/Sex: CD-1/FEMALE, Target Tissue: Type of Lesion: SKIN: PAPILLOMA, Dose [Carcinogen]: 200 NMOL IN 200 µL ACETONE ONCE, Promoter: 12-O-TETRADECANOYLPHORBOL-13-ACETATE, 16561-29-8) 68%, 47%, 31%, not calculated; (Carcinogen: 7,12-DIMETHYLBENZ[A]ANTHRACENE, 57-97-6, Dose [Inhibitor]: 20 UMOL IN 200 µL ACETONE/DMSO (90:10) 2/WK FOR 19 WK BEGINNING 1 WK POST CARCINOGEN DOSE (STUDY DURATION: 20 WK), Route [Inhibitor]: DERMAL, Species: MOUSE, Strain/Sex: CD-1/FEMALE, Target Tissue: Type of Lesion: SKIN: PAPILLOMA, Dose [Carcinogen]: 200 NMOL IN 200 µL ACETONE ONCE, Promoter: 12-O-TETRADECANOYLPHORBOL-13-ACETATE, 16561-29-8) 68%, 27%, 60%, not calculated; (Carcinogen: N-METHYL-N-NITROSOUREA [684-93-5], Dose [Inhibitor]: 250 PPM IN DIET FOR 22 WK BEGINNING 1 WK POST LAST CARCINOGEN DOSE (STUDY DURATION: 35 WK), Route [Inhibitor]: ORAL, Species: RAT, Strain/Sex: F344/MALE, Target Tissue: Type of Lesion: GLANDULAR STOMACH: ADENOCARCINOMA, Dose [Carcinogen]: 400 PPM IN DRINKING WATER FOR 12 WK (STUDY DURATION: 35 WK), Promoter: NONE) 12/20 (60.0%), 4/17 (23.5%), 61%, p<0.03; (Carcinogen: N-METHYL-N-NITROSOUREA [684-93-5], Dose [Inhibitor]: 500 PPM IN DIET FOR 22 WK BEGINNING 1 WK POST LAST CARCINOGEN DOSE (STUDY DURATION: 35 WK), Route [Inhibitor]: ORAL, Species: RAT, Strain/Sex: F344/MALE, Target Tissue: Type of Lesion: GLANDULAR STOMACH: ADENOCARCINOMA, Dose [Carcinogen]: 400 PPM IN DRINKING WATER FOR 12 WK (STUDY DURATION: 35 WK), Promoter: NONE) 12/20 (60.0%), 7/21 (33.3%), 45%, not significant; (Carcinogen: N-NITROQUINOLINE-1-OXIDE, 56-57-5, Dose [Inhibitor]: 0, 250 PPM IN DIET FOR 7 WK BEGINNING 1 WK PRIOR TO START OF CARCINOGEN TREATMENT (STUDY DURATION: 32 WK), Route [Inhibitor]: ORAL, Species: RAT, Strain/Sex: F344\MALE, Target Tissue: Type of Lesion: TONGUE: CARCINOMA, Dose [Carcinogen]: 20 PPM IN DRINKING WATER FOR 5 WK, Promoter: NONE USED) 9/15 (60%), 1/15 (7%), 88%, p=0.0025.

Regarding `C#C[C@]1(O)CC[C@H]2[C@@H]3CCC4=CC(=O)CC[C@@H]4[C@H]3CC[C@@]21CC` (tested in a mixture with another compound), the “tumour outcome (control, treated, inhibition, significance)” value is 2/23 (9%), 1/16 (6%), 33%, not significant (Carcinogen: 3-METHYLCHOLANTHRENE, 56-49-5, Dose [Inhibitor]: 0, 1/200 OF A PILL CONTAINING 0.25 UG ETHINYLESTRADIOL AND 2.5 UG NORGESTREL 1/D FOR 60 D (STUDY DURATION: 60 D), Route [Inhibitor]: ORAL, Species: MOUSE, Strain/Sex: SWISS/FEMALE, Target Tissue: Type of Lesion: UTERINE CERVIX: TUMOR, Dose [Carcinogen]: 300 UG IN BEESWAX IMPREGNATED COTTON THREAD INSERTED INTO CANAL OF UTERINE CERVIX FOR DURATION OF STUDY, Promoter: NONE USED); 6/23 (26%), 1/29 (3%), 88%, p<0.05 (Carcinogen: 3-METHYLCHOLANTHRENE, 56-49-5, Dose [Inhibitor]: 0, 1/200 OF A PILL CONTAINING 0.25 UG ETHINYLESTRADIOL AND 2.5 UG NORGESTREL 1/D FOR 90 D (STUDY DURATION: 90 D), Route [Inhibitor]: ORAL, Species: MOUSE, Strain/Sex: SWISS/FEMALE, Target Tissue: Type of Lesion: UTERINE CERVIX: TUMOR, Dose [Carcinogen]: 300 UG IN BEESWAX IMPREGNATED COTTON THREAD INSERTED INTO CANAL OF UTERINE CERVIX FOR DURATION OF STUDY, Promoter: NONE USED); 2/23 (9%), 0/22 (0%), 100%, not significant (Carcinogen: 3-METHYLCHOLANTHRENE, 56-49-5, Dose [Inhibitor]: 0, 1/2000 OF A PILL CONTAINING 0.025 UG ETHINYLESTRADIOL AND 0.25 UG OF NORGESTREL 1/D FOR 60 D (STUDY DURATION: 60 D), Route [Inhibitor]: ORAL, Species: MOUSE, Strain/Sex: SWISS/FEMALE, Target Tissue: Type of Lesion: UTERINE CERVIX: TUMOR, Dose [Carcinogen]: 300 UG IN BEESWAX IMPREGNATED COTTON THREAD INSERTED INTO CANAL OF UTERINE CERVIX FOR DURATION OF STUDY, Promoter: NONE USED); 6/23 (26%), 1/30 (3%), 88%, p<0.05 (Carcinogen: 3-METHYLCHOLANTHRENE, 56-49-5, Dose [Inhibitor]: 0, 1/2000 OF A PILL CONTAINING 0.025 UG ETHINYLESTRADIOL AND 0.25 UG OF NORGESTREL 1/D FOR 90 D (STUDY DURATION: 90 D), Route [Inhibitor]: ORAL, Species: MOUSE, Strain/Sex: SWISS/FEMALE, Target Tissue: Type of Lesion: UTERINE CERVIX: TUMOR, Dose [Carcinogen]: 300 UG IN BEESWAX IMPREGNATED COTTON THREAD INSERTED INTO THE CANAL OF THE UTERINE CERVIX FOR THE DURATION OF STUDY, Promoter: NONE USED).

As to `CC(=O)[C@@H]1C[C@@H]2C[C@H]1[C@@H](N=C=S)C2`, the “tumour outcome (control, treated, inhibition, significance)” value is 17/25 (68%), 5/20 (25%), 63%, p<0.05 (Carcinogen: 7,12-DIMETHYLBENZ[A]ANTHRACENE, 57-97-6, Dose [Inhibitor]: 0, 75 UMOL/D IN 0.5 ML EMULPHOR EL-620 FOR 5 CONSECUTIVE DAYS BEGINNING AT 47 D OF AGE (STUDY DURATION: 155 D), Route [Inhibitor]: GAVAGE, Species: RAT, Strain/Sex: SPRAGUE-DAWLEY/FEMALE, Target Tissue: Type of Lesion: MAMMARY GLAND: TUMOR, Dose [Carcinogen]: 8 MG IN 1 ML SESAME OIL ONCE AT 50 D OF AGE, Promoter: NONE USED) and 17/25 (68%), 5/20 (25%), 63%, p<0.05 (Carcinogen: 7,12-DIMETHYLBENZ[A]ANTHRACENE, 57-97-6, Dose [Inhibitor]: 0, 150 UMOL/D IN 0.5 ML EMULPHOR EL-620 FOR 5 CONSECUTIVE DAYS BEGINNING AT 47 D OF AGE (STUDY DURATION: 155 D), Route [Inhibitor]: GAVAGE, Species: RAT, Strain/Sex: SPRAGUE-DAWLEY/FEMALE, Target Tissue: Type of Lesion: MAMMARY GLAND: TUMOR, Dose [Carcinogen]: 8 MG IN 1 ML SESAME OIL ONCE AT 50 D OF AGE, Promoter: NONE USED).
